Converted amounts (≈) assume the structure as drawn.
Experiments:
Staphylococcus aureus [1] = experiment: In vitro antibacterial activity against Staphylococcus aureus MR; assay type: functional
Proteus mirabilis = experiment: In vitro antibacterial activity against Proteus mirabilis; assay type: functional
[2] = system: Staphylococcus epidermidis; experiment: In vitro antibacterial activity against Staphylococcus epidermidis; assay type: functional
Escherichia coli [3] = experiment: In vitro antibacterial activity against Escherichia coli; assay type: functional
Pseudomonas aeruginosa [4] = experiment: In vitro antibacterial activity against Pseudomonas aeruginosa VR5; assay type: functional
Pseudomonas aeruginosa [5] = experiment: In vitro antibacterial activity against Pseudomonas aeruginosa ATCC 27853; assay type: functional
Streptococcus agalactiae = experiment: In vitro antibacterial activity against Streptococcus agalactiae B; assay type: functional
Moraxella catarrhalis = experiment: In vitro antibacterial activity against Branhamella catarrhalis; assay type: functional
Staphylococcus aureus [6] = experiment: In vitro antibacterial activity against Staphylococcus aureus MR09; assay type: functional
[7] = system: Stenotrophomonas maltophilia; experiment: In vitro antibacterial activity against Xanthomonas maltophilia; assay type: functional
Escherichia coli [8] = experiment: In vitro antibacterial activity against Escherichia. coli L; assay type: functional
Providencia stuartii = experiment: In vitro antibacterial activity against Providencia stuartii; assay type: functional
Pseudomonas aeruginosa [9] = experiment: In vitro antibacterial activity against Pseudomonas aeruginosa G242; assay type: functional
Streptococcus pneumoniae = experiment: In vitro antibacterial activity against Streptococcus pneumoniae; assay type: functional
Staphylococcus aureus [10] = experiment: In vitro antibacterial activity against Staphylococcus aureus MS; assay type: functional
Escherichia coli [11] = experiment: In vitro antibacterial activity against Escherichia. coli SHV; assay type: functional
Enterococcus faecalis [12] = experiment: In vitro antibacterial activity against Enterococcus faecalis ATCC 29212; assay type: functional
[13] = system: Acinetobacter calcoaceticus subsp. anitratus; experiment: In vitro antibacterial activity against Acinetobacter anitratus; assay type: functional
Aeromonas sp. = experiment: In vitro antibacterial activity against Aeromonas species.; assay type: functional
Providencia rettgeri = experiment: In vitro antibacterial activity against Providencia rettgerii; assay type: functional
Klebsiella aerogenes = experiment: In vitro antibacterial activity against Enterobacter aerogenes; assay type: functional
Morganella morganii = experiment: In vitro antibacterial activity against Morganella morganii; assay type: functional
Streptococcus pyogenes = experiment: In vitro antibacterial activity against Streptococcus pyogenes A; assay type: functional
Staphylococcus aureus [14] = experiment: In vitro antibacterial activity against Staphylococcus aureus ATCC 25923; assay type: functional
Pseudomonas aeruginosa [15] = experiment: In vitro antibacterial activity against Pseudomonas aeruginosa; assay type: functional
Bacteroides fragilis = experiment: In vitro antibacterial activity against Bacteroides fragilis; assay type: functional
Staphylococcus aureus [16] = experiment: In vitro antibacterial activity against Staphylococcus aureus ATCC 29213; assay type: functional
Enterococcus faecium = experiment: In vitro antibacterial activity against Enterococcus faecium; assay type: functional
Listeria monocytogenes = experiment: In vitro antibacterial activity against Listeria monocytogenes; assay type: functional
Yersinia sp. = experiment: In vitro antibacterial activity against Yersinia species; assay type: functional, yersinia spp; settings: Yersinia sp. (in: enterobacteria)
Escherichia coli [17] = experiment: In vitro antibacterial activity against Escherichia. coli ATCC 25922; assay type: functional
Citrobacter freundii = experiment: In vitro antibacterial activity against Citrobacter freundii; assay type: functional
Staphylococcus aureus [18] = experiment: In vitro antibacterial activity against Staphylococcus aureus MR13; assay type: functional
Escherichia coli [19] = experiment: In vitro antibacterial activity against Escherichia. coli TEM1; assay type: functional
Klebsiella pneumoniae = experiment: In vitro antibacterial activity against Klebsiella pneumoniae; assay type: functional
Haemophilus influenzae = experiment: In vitro antibacterial activity against Haemophilus influenzae; assay type: functional
Proteus vulgaris = experiment: In vitro antibacterial activity against Proteus vulgaris; assay type: functional
Enterococcus faecalis [20] = experiment: In vitro antibacterial activity against Enterococcus faecalis; assay type: functional
Clostridium perfringens = experiment: In vitro antibacterial activity against Clostridium perfringens; assay type: functional
Escherichia coli [21] = experiment: In vitro antibacterial activity against Escherichia. coli TEM2; assay type: functional
Pseudomonas aeruginosa [22] = experiment: microbe, parasite or virus in culture; settings: ATCC 27853
Escherichia coli [23] = experiment: In vitro antibacterial activity against Escherichia. coli DC2; assay type: functional

Structure (SMILES): CC1(C)S[C@@H]2[C@H](NC(=O)[C@H](N)c3ccccc3)C(=O)N2[C@H]1C(=O)O.CC1(C)[C@H](C(=O)O)N2C(=O)C[C@H]2S1(=O)=O
- MIC90 (Staphylococcus aureus [1]): 32 µg/mL
- MIC90 (Proteus mirabilis): 32 µg/mL
- MIC90 [2]: 4 µg/mL
- MIC90 (Escherichia coli [3]): 8 µg/mL
- MIC (Pseudomonas aeruginosa [4]): 0.12 µg/mL
- MIC (Pseudomonas aeruginosa [5]): 32 µg/mL
- MIC90 (Streptococcus agalactiae): 0.06 µg/mL
- MIC90 (Moraxella catarrhalis): 0.5 µg/mL
- MIC (Staphylococcus aureus [6]): 4 µg/mL
- MIC90 [7]: > 64 µg/mL
- MIC (Escherichia coli [8]): 8 µg/mL
- MIC90 (Providencia stuartii): 64 µg/mL
- MIC (Pseudomonas aeruginosa [9]): > 32 µg/mL
- MIC90 (Streptococcus pneumoniae): 0.03 µg/mL
- MIC90 (Staphylococcus aureus [10]): 1 µg/mL
- MIC (Escherichia coli [11]): > 32 µg/mL
- MIC (Enterococcus faecalis [12]): 1 µg/mL
- MIC90 [13]: 32 µg/mL
- MIC90 (Aeromonas sp.): > 32 µg/mL
- MIC90 (Providencia rettgeri): 32 µg/mL
- MIC90 (Klebsiella aerogenes): > 64 µg/mL
- MIC90 (Morganella morganii): 16 µg/mL
- MIC90 (Streptococcus pyogenes): 0.03 µg/mL
- MIC (Staphylococcus aureus [14]): 0.03 µg/mL
- MIC90 (Pseudomonas aeruginosa [15]): > 64 µg/mL
- MIC90 (Bacteroides fragilis): 4 µg/mL
- MIC (Staphylococcus aureus [16]): 0.25 µg/mL
- MIC90 (Enterococcus faecium): > 64 µg/mL
- MIC90 (Listeria monocytogenes): 0.5 µg/mL
- MIC90 (Yersinia sp.): 32 µg/mL
- MIC (Escherichia coli [17]): 8 µg/mL
- MIC90 (Citrobacter freundii): > 64 µg/mL
- MIC (Staphylococcus aureus [18]): 0.12 µg/mL
- MIC (Escherichia coli [19]): > 32 µg/mL
- MIC90 (Klebsiella pneumoniae): 16 µg/mL
- MIC90 (Haemophilus influenzae): 1 µg/mL
- MIC90 (Proteus vulgaris): 8 µg/mL
- MIC90 (Enterococcus faecalis [20]): 2 µg/mL
- MIC90 (Clostridium perfringens): 0.12 µg/mL
- MIC (Escherichia coli [21]): 8 µg/mL

Structure (SMILES): CC1(C)S[C@@H]2[C@H](NC(=O)[C@H](N)c3ccc(O)cc3)C(=O)N2[C@H]1C(=O)O [AMOXICILLIN]
- MIC90 (Staphylococcus aureus [1]): > 32 µg/mL
- MIC90 [2]: 4 µg/mL (≈ 10.9 µM)
- MIC90 (Streptococcus agalactiae): 0.06 µg/mL (≈ 0.164 µM)
- MIC90 (Moraxella catarrhalis): 2 µg/mL (≈ 5.47 µM)
- MIC90 (Streptococcus pneumoniae): 0.015 µg/mL (≈ 0.041 µM)
- MIC90 (Staphylococcus aureus [10]): 1 µg/mL (≈ 2.74 µM)
- MIC90 (Aeromonas sp.): > 32 µg/mL
- MIC90 (Streptococcus pyogenes): 0.015 µg/mL (≈ 0.041 µM)
- MIC90 (Bacteroides fragilis): 32 µg/mL (≈ 87.6 µM)
- MIC90 (Enterococcus faecium): 32 µg/mL (≈ 87.6 µM)
- MIC90 (Listeria monocytogenes): 0.5 µg/mL (≈ 1.37 µM)
- MIC90 (Yersinia sp.): > 64 µg/mL
- MIC90 (Klebsiella pneumoniae): > 64 µg/mL
- MIC90 (Haemophilus influenzae): 1 µg/mL (≈ 2.74 µM)
- MIC90 (Enterococcus faecalis [20]): 0.5 µg/mL (≈ 1.37 µM)
- MIC90 (Clostridium perfringens): 0.06 µg/mL (≈ 0.164 µM)

Structure (SMILES): C[C@@H](O)[C@H]1C(=O)N2C(C(=O)O)=C(SCCNC=N)C[C@H]12 [IMIPENEM ANHYDROUS]
- MIC90 (Staphylococcus aureus [1]): > 32 µg/mL
- MIC90 (Proteus mirabilis): 2 µg/mL (≈ 6.68 µM)
- MIC90 [2]: 0.25 µg/mL (≈ 0.835 µM)
- MIC90 (Escherichia coli [3]): 0.12 µg/mL (≈ 0.401 µM)
- MIC (Pseudomonas aeruginosa [4]): 0.25 µg/mL (≈ 0.835 µM)
- MIC90 (Streptococcus agalactiae): 0.015 µg/mL (≈ 0.0501 µM)
- MIC90 (Moraxella catarrhalis): 0.03 µg/mL (≈ 0.1 µM)
- MIC (Staphylococcus aureus [6]): 0.25 µg/mL (≈ 0.835 µM)
- MIC90 [7]: > 64 µg/mL
- MIC (Escherichia coli [8]): 0.12 µg/mL (≈ 0.401 µM)
- MIC90 (Providencia stuartii): 2 µg/mL (≈ 6.68 µM)
- MIC (Pseudomonas aeruginosa [9]): 0.25 µg/mL (≈ 0.835 µM)
- MIC90 (Streptococcus pneumoniae): 0.06 µg/mL (≈ 0.2 µM)
- MIC90 (Staphylococcus aureus [10]): 0.015 µg/mL (≈ 0.0501 µM)
- MIC (Escherichia coli [11]): 0.25 µg/mL (≈ 0.835 µM)
- MIC (Enterococcus faecalis [12]): 0.5 µg/mL (≈ 1.67 µM)
- MIC90 [13]: 0.5 µg/mL (≈ 1.67 µM)
- MIC90 (Aeromonas sp.): 0.06 µg/mL (≈ 0.2 µM)
- MIC90 (Providencia rettgeri): 1 µg/mL (≈ 3.34 µM)
- MIC90 (Klebsiella aerogenes): 4 µg/mL (≈ 13.4 µM)
- MIC90 (Morganella morganii): 2 µg/mL (≈ 6.68 µM)
- MIC (Pseudomonas aeruginosa [22]): 1 µg/mL (≈ 3.34 µM)
- MIC90 (Streptococcus pyogenes): 0.06 µg/mL (≈ 0.2 µM)
- MIC (Staphylococcus aureus [14]): < 0.03 µg/mL
- MIC90 (Pseudomonas aeruginosa [15]): 8 µg/mL (≈ 26.7 µM)
- MIC90 (Bacteroides fragilis): 0.25 µg/mL (≈ 0.835 µM)
- MIC (Staphylococcus aureus [16]): < 0.03 µg/mL
- MIC90 (Enterococcus faecium): > 64 µg/mL
- MIC90 (Listeria monocytogenes): 0.03 µg/mL (≈ 0.1 µM)
- MIC90 (Yersinia sp.): 0.25 µg/mL (≈ 0.835 µM)
- MIC (Escherichia coli [17]): 0.12 µg/mL (≈ 0.401 µM)
- MIC90 (Citrobacter freundii): 0.5 µg/mL (≈ 1.67 µM)
- MIC (Staphylococcus aureus [18]): 0.12 µg/mL (≈ 0.401 µM)
- MIC (Escherichia coli [19]): 0.25 µg/mL (≈ 0.835 µM)
- MIC90 (Klebsiella pneumoniae): 0.25 µg/mL (≈ 0.835 µM)
- MIC90 (Haemophilus influenzae): 1 µg/mL (≈ 3.34 µM)
- MIC (Escherichia coli [23]): 0.5 µg/mL (≈ 1.67 µM)
- MIC90 (Proteus vulgaris): 2 µg/mL (≈ 6.68 µM)
- MIC90 (Enterococcus faecalis [20]): 2 µg/mL (≈ 6.68 µM)
- MIC90 (Clostridium perfringens): 0.03 µg/mL (≈ 0.1 µM)
- MIC (Escherichia coli [21]): 0.25 µg/mL (≈ 0.835 µM)

Structure (SMILES): C[C@@H](O)[C@H]1C(=O)N2C(C(=O)O)=C(COC(N)=O)S[C@H]12 [RITIPENEM]
- MIC (Pseudomonas aeruginosa [4]): 0.5 µg/mL (≈ 1.73 µM)
- MIC (Pseudomonas aeruginosa [5]): > 32 µg/mL
- MIC (Staphylococcus aureus [6]): 2 µg/mL (≈ 6.94 µM)
- MIC (Escherichia coli [8]): 1 µg/mL (≈ 3.47 µM)
- MIC (Pseudomonas aeruginosa [9]): 1 µg/mL (≈ 3.47 µM)
- MIC (Escherichia coli [11]): 1 µg/mL (≈ 3.47 µM)
- MIC (Enterococcus faecalis [12]): 2 µg/mL (≈ 6.94 µM)
- MIC (Staphylococcus aureus [14]): 0.06 µg/mL (≈ 0.208 µM)
- MIC (Staphylococcus aureus [16]): 0.12 µg/mL (≈ 0.416 µM)
- MIC (Escherichia coli [17]): 0.5 µg/mL (≈ 1.73 µM)
- MIC (Staphylococcus aureus [18]): 0.12 µg/mL (≈ 0.416 µM)
- MIC (Escherichia coli [19]): 1 µg/mL (≈ 3.47 µM)
- MIC (Escherichia coli [23]): 1 µg/mL (≈ 3.47 µM)
- MIC (Escherichia coli [21]): 1 µg/mL (≈ 3.47 µM)

— ChEMBL document CHEMBL1128849, “Synthesis and antibacterial activity of men 10700, a new penem antibiotic” (1995)
